Two compounds from ChEMBL document CHEMBL3826915, “Design and comparative anticonvulsant activity assessment of CNS-active alkyl-carbamoyl imidazole derivatives” (Bioorg Med Chem, 2016) can be followed below.

Series [1] has as its system Mus musculus. The series is described as follows: Anticonvulsant activity in ip dosed AGS-susceptible frings albino CF1 mouse assessed as protection against sound-induced seizures. It is filed as functional.
Series [2] in a line: Neurotoxicity in ip dosed albino CF1 mouse assessed as motor impairment by rotorod test. Format: toxicity, organism-based. Conditions: in vivo.
For series [3], the system named is Mus musculus. Briefly: Anticonvulsant activity in ip dosed albino CF1 mouse assessed as protection against subcutaneous metrazol-induced seizures by measuring time to peak effect. It is filed as functional.
Series [4] deals with Mus musculus. Briefly: Anticonvulsant activity in ip dosed albino CF1 mouse assessed as protection against maximal electroshock-induced seizures by measuring time to peak effect. Format: functional. In general terms: Protection in the maximal electroshock model is a classic sign of anticonvulsant action.
Series [5] concerns Mus musculus. Briefly: Anticonvulsant activity in ip dosed albino CF1 mouse assessed as protection against 6 Hz current-induced seizures by psychomotor test. It is filed as functional.
The nature of series [6]: Protective index, ratio of TD50 for neurotoxicity in ip dosed albino CF1 mouse to ED50 for anticonvulsant activity in ip dosed […] metrazol-induced seizure albino CF1 mouse model. Format: toxicity, organism-based. Conditions: in vivo, read-out: Ratio TD50/ED50.
The test system of series [7] is Mus musculus. The series is described as follows: Anticonvulsant activity in ip dosed albino CF1 mouse assessed as protection against subcutaneous metrazol-induced seizures. Format: functional.
Series [8] can be described thus: Protective index, ratio of TD50 for neurotoxicity in ip dosed albino CF1 mouse to ED50 for anticonvulsant activity in ip dosed 6 Hz current-induced seizure albino CF1 mouse model. The following applies: in vivo.
In series [9] the test system is Mus musculus. Briefly: Anticonvulsant activity in ip dosed albino CF1 mouse assessed as protection against 6 Hz current-induced seizure by measuring time to peak effect. Format: functional.
Series [10] in a line: Protective index, ratio of TD50 for neurotoxicity in ip dosed albino CF1 mouse to ED50 for protection against sound-induced seizures in ip dosed AGS-susceptible frings albino CF1 mouse. The following applies: CF1 (ED50 arm: AGS-susceptible Frings), in vivo, read-out: Ratio TD50/ED50. It is filed as toxicity, organism-based.
The test system of series [11] is Homo sapiens. Briefly: Anticonvulsant activity in patient assessed as improvement in seizure control at 600 mg/day administered up to 1 year. It is filed as functional.

Broadly, the ED50 is the dose at which the effect has come halfway, by size or by number of responders. The TD50 is the 50% point of the dose-response relation for the toxic effect studied. With `CCCC(C(N)=O)C(C)CC` (stereo unspecified), the ED50 in series [1] was 20 mg/kg; in [5], 27 mg/kg; in series [7], 21 mg/kg. In addition, in series [2], the TD50 is 48 mg/kg. Further, the Time in series [3], in [4] and in [9] was 0.5 h in each case. For the same compound, the selectivity ratio was found to be 2.3 in series [6], 1.8 in [8] and 2.4 in series [10].

Consider `O=C(Cn1ccnc1)c1ccc2ccccc2c1` [NAFIMIDONE], for which, in [11], the Activity is reported as 33%.
